From patent US20260137698A1, “CYCLIN-DEPENDENT KINASE 7 INHIBITORS” (JOINT STOCK COMPANY «BIOCAD», priority 2022, published 2026)
Read-outs that look alike come from different tables or passages of the source.

What was measured:
[1] = General cytotoxicity on primary differentiated HepaRG cells (72 h); format: cell-based; details: human, general toxicity, mean value from several measurements
In short: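 Differentiated HepaRG cells, maintained a week in basal hepatic medium with maintenance/metabolism supplement, were plated at 25×10^3 cells/well overnight. Compounds (200 μM to 0.2 nM) were added for 72 h before viability readout.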

CDK7/Cyclin H/MNAT1 = CDK7/Cyclin H/MNAT1 (Homo sapiens, UniProt P50613); assay: Inhibition of CDK7/Cyclin H/MNAT1 kinase activity (ADP-Glo); format: biochemical
In short: (§1)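 Kinase preincubated with compound (11 points, 4-fold steps from 50 μM) for 10 minutes at 25° C. in kinase buffer A with DTT, then reacted 40-60 minutes at 25° C. with ATP and CDKtide, Histone H1 or PDKtide substrate. ADP formation read by ADP-Glo luminescence; IC50 from four-parameter fit.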

CDK9/Cyclin K = CDK9/Cyclin K (Homo sapiens, UniProt P50750); assay: Inhibition of CDK9/Cyclin K kinase activity (ADP-Glo); format: biochemical
In short: as §1

[2] = tested on: NCl-H82 (small cell lung cancer); assay: Antiproliferative assay on NCl-H82 cells (AlamarBlue, 120 h); format: cell-based; details: mean value from several measurements
Protocol: The antiproliferative activity of CDK7 inhibitors according to the present invention was evaluated in a cell test using continuous cell cultures: MDA-MB-468 (triple negative breast cancer, ATCC® HTB-132™) and NCl-H82 (small cell lung cancer, ATCC® HTB-175™) using a viable AlamarBlue dye (Thermo Fisher Scientific Inc, order no. DAL1100). The cells were grown in DMEM (PanEco, order no. C330π) and RPMI-1640 (PanEco, order no. C330π), respectively. The basal growth medium was enriched with L-glutamine at a concentration of 2 mM (PanEco, order no. Φ032) and 10% fetal bovine serum (Gibco, order no. 16140-071). The night before measurement, MDA-MB-468 adherent cells were detached from plastic with a solution of trypsin-EDTA (PanEco, order no. Π039π), the solution was then inactivated by a DMEM complete medium, centrifuged at 1000 RPM (Eppendorf, 5804 R), a suspension of cells was prepared in a DMEM complete medium, introduced into 96-well culture plates (Corning Inc, order no. 3599) at 8×10^3 cells in 100 μl of medium per well. The next day, test compounds were dissolved in DMSO and diluted with a DMEM complete medium to a final concentration ranging from 50 μM to 10 pM. Diluted compounds in a volume of 50 μl were introduced into the plate wells with cells in triplicates (the final concentration of DMSO was no more than 1%) and incubated at 37° C. in an incubator with 5% CO2 for 96 hours. NCl-H82 suspension cell line was prepared on the day of the analysis. 10×10^3 cells in 100 μl of an RPMI-1640 complete medium were added to each well of a 96-well plate. The procedure for sample dilution is as described above. Cells with test compounds were incubated at 37° C. in an incubator with 5% CO2 for 120 hours. Following incubation, […] of AlamarBlue reagent (Thermo Fisher Scientific Inc., order no. DAL1100) was added to the wells, the contents of the plates were stirred in an orbital shaker (Biosan, Latvia), then further incubated for 5.5-6 hours at 37° C. in an incubator with 5% CO2. The number of viable cells was detected using the Infinite M200Pro microplate spectrophotometer (Tecan Group Ltd, Switzerland) by way of measuring a fluorescent signal at an excitation wavelength (λEx) of 540 nm and an emission wavelength (λEm) of 590 nm.
IC50 value was calculated using the Magellan software (Tecan Group Ltd, Switzerland) by approximating experimental points by four-parameter model with the optimization by Levenberg-Marquardt: […]

CDK2/Cyclin A = CDK2/Cyclin A (Homo sapiens, UniProt P24941); assay: Inhibition of CDK2/Cyclin A kinase activity (ADP-Glo); format: biochemical
In short: as §1

[3] = tested on: MDA-MB-468 (triple negative breast cancer); assay: Antiproliferative assay on MDA-MB-468 cells (AlamarBlue, 96 h); format: cell-based; details: Homo sapiens, mean value from several measurements
[4] = Passive membrane permeability through PAMPA artificial membrane, pH 7.4; format: in vitro ADME; details: pH 7.4, 10 μmol, 20 hours at room temperature, mean of multiple measurements, read-out: PAMPA passive permeability Pe
Protocol: Passive membrane permeability of the compounds described in the present invention was determined using the PAMPA (parallel artificial membrane permeability assay) model at pH 7.4.
We used a 96-well plate (Corning® BioCoat® Pre-coated PAMPA Plate System, order no. 353015), composed of acceptor and donor parts with cell membrane-modeling PVDF filter pre-impregnated with a lecithin-phospholipid bilayer. The substance (at a concentration of 10 μmol) in a 0.01 M phosphate buffer with pH 7.4 was introduced into a donor well of the plate, and pure buffer was introduced into an acceptor well; afterwards, the both parts were combined and incubated for 20 hours at room temperature so that the compound was redistributed between the two wells and the membrane. Verapamil (USP, USA, order no. 1711202) and propranolol (MCE LLC, USA, cat. no. HY-B0573/CS-2680) were used as control compounds with high and medium permeability. Samples were analyzed by reversed-phase HPLC with UV detection (Agilent 1260 chromatograph with UV detector) by determining their peak areas in the donor and acceptor wells.
Permeability (Pe, cm/s) and retention factor (R, %) in the lipid bilayer were calculated using the formula:
[formula] [formula] • Co is donor-well concentration of the substance at the initial moment of time t (μM); • CA (t) is acceptor-well concentration of the substance at time t (μM); • Vd is donor-well volume (0.3 ml); • Va is acceptor-well volume (0.15 ml).
[formula] • A is filter area (0.3 cm^2); • t is incubation time (72000 s);

[5] = mean value from several measurements, read-out: IC50 CDK7/Cyclin H/MNAT
[6] = mean value from several measurements, read-out: IC50 CDK9/Cyclin K
[7] = mean value from several measurements, read-out: IC50 CDK2/Cyclin A
[8] = mean of multiple measurement series, ATP 10 μM, read-out: CDK7/Cyclin H/MNAT1 IC50
[9] = mean of multiple measurement series, ATP 50 μM, read-out: CDK9/Cyclin K IC50
[10] = mean of multiple measurement series, ATP 50 μM, read-out: CDK2/Cyclin A IC50

Sequence of CDK9/Cyclin K (P50750 whole entry): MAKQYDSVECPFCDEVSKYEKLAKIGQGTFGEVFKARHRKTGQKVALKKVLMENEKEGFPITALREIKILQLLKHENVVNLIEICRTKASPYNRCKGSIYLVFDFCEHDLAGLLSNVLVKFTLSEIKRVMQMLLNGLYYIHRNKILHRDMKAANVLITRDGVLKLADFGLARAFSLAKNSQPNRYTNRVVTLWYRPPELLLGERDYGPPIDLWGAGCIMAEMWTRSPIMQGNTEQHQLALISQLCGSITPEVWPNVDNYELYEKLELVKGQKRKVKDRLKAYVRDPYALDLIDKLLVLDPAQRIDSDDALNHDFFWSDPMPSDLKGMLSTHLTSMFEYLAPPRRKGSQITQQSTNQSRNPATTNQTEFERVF
Sequence of CDK9/Cyclin K (O75909 whole entry partner): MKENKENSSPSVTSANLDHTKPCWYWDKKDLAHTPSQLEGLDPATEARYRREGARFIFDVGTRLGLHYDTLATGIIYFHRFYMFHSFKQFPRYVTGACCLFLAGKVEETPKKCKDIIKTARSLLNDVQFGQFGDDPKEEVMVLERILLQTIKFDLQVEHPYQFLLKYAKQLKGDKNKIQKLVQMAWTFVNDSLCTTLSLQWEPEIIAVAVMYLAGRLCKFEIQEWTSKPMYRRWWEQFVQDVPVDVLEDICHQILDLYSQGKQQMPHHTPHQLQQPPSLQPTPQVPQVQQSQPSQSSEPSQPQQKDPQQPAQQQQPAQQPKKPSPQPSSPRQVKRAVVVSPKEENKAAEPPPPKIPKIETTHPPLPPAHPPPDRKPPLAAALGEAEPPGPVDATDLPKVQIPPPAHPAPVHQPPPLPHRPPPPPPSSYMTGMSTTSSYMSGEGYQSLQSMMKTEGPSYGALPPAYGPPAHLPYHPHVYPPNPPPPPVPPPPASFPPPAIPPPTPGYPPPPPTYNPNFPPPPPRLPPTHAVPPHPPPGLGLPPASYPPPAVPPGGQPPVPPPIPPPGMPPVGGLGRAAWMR
Sequence of CDK7/Cyclin H/MNAT1 (P50613 whole entry): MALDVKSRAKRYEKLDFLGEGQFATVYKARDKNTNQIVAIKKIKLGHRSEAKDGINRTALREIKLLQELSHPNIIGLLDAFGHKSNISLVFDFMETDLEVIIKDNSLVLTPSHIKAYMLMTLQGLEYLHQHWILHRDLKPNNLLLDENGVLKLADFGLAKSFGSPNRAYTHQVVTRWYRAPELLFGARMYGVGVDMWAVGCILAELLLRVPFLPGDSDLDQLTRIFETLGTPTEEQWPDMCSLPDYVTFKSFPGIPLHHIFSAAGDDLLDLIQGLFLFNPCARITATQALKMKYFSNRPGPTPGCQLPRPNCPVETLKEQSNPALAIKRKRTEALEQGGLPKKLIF
Sequence of CDK7/Cyclin H/MNAT1 (P51946 whole entry partner): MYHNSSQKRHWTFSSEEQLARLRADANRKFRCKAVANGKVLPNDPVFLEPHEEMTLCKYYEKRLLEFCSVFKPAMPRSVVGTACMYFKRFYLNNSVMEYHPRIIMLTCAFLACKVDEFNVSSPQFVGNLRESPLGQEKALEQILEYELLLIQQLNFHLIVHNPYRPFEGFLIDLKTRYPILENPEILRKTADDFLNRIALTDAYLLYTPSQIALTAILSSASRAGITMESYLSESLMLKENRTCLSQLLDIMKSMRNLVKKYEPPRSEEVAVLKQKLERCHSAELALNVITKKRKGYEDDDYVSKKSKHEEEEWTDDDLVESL
Sequence of CDK7/Cyclin H/MNAT1 (P51948 whole entry partner): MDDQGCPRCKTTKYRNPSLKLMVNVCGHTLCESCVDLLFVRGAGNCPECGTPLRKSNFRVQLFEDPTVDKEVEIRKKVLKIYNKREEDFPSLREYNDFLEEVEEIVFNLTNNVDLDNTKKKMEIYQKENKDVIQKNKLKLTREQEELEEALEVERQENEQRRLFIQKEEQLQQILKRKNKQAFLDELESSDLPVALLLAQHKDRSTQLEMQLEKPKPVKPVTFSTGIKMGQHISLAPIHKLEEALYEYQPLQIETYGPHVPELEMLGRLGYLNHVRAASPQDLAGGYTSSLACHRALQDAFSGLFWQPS

| Compound | IC50 (CDK7/Cyclin H/MNAT1; [5]) [nM] | IC50 (CDK9/Cyclin K; [6]) [nM] | IC50 [2] [nM] | IC50 (CDK2/Cyclin A; [7]) [nM] | IC50 [3] [nM] | Papp at 20 h, 10 μmol [4] [×10⁻⁶ cm/s] | IC50 (CDK7/Cyclin H/MNAT1; [8]) [nM] | IC50 (CDK9/Cyclin K; [9]) [nM] | IC50 (CDK2/Cyclin A; [10]) [nM] | CC50 at 72 h [1] [nM] |
| --- | --- | --- | --- | --- | --- | --- | --- | --- | --- | --- |
| Cc1nnc2n1CCCc1c(-c3nc(N[C@H]4CCCNC4)ncc3C(F)(F)F)c[nH]c1-2 [CDK7_1236, 4-{5-methyl-3,4,6,13-tetraazatricyclo[8.3.0.0^2,^6]trideca-1(10),2,4,11-tetraen-11-yl}-N-[(3S)-piperidin-3-yl]-5-(trifluoromethyl)py-rimidin-2-amine] | < 5 | 50 to 200 | 10 to 100 | > 200 | 10 to 100 | – | – | – | – | > 2000 |
| CN(C)C(=O)c1cc(-c2nc(N[C@H]3CCCNC3)ncc2C(F)(F)F)cn1C [CDK7_1017, N,N,1-trimethyl-4-(2-{[(3S)-piperidin-3-yl]amino}-5-(trifluoromethyl)py-rimidin-4-yl)-1H-pyrrole-2-carboxamide] | 5 to 50 | 50 to 200 | > 1000 | > 200 | 100 to 1000 | 1 to 5 | – | – | – | > 2000 |
| COCCN1CCCc2c(-c3nc(N[C@H]4CCC(C)(C)NC4)ncc3C(F)(F)F)c[nH]c2C1=O [CDK7_1268, 3-(2-{[(3S)-6,6-dimethylpiperidin-3-yl]amino}-5-(trifluoromethyl)py-rimidin-4-yl)-7-(2-methoxyethyl)-1H,4H,5H,6H,7H, 8H-pyrrolo[2,3-c]azepin-8-one] | – | > 200 | 10 to 100 | > 200 | 10 to 100 | – | – | – | – | > 2000 |
| O=C(Nc1ccc(N2CCOCC2)cc1)c1cc(-c2nc(N[C@H]3CCCNC3)ncc2C(F)(F)F)c[nH]1 [CDK7_838, N-[4-(morpholin-4-yl)phenyl]-4-(2-{[(3S)-piperidin-3-yl]amino}-5-(trifluoromethyl)pyrimidin-4-yl)-1H-pyrrole-2-carboxamide] | 5 to 50 | 50 to 200 | 100 to 1000 | > 200 | 100 to 1000 | – | – | – | – | 500 to 2000 |
| Cn1cc(-n2ccc3c(-c4nc(N[C@H]5CCCNC5)ncc4C(F)(F)F)c[nH]c3c2=O)ccc1=O [CDK7_1052, 1-methyl-5-[7-oxo-3-(2-{[(3S)-piperidin-3-yl]amino}-5-(trifluoromethyl)py-rimidin-4-yl)-1H,6H,7H-pyrrolo[2,3-c]pyridin-6-yl]-1,2-dihydropyridin-2-one] | < 5 | > 200 | 100 to 1000 | > 200 | 100 to 1000 | – | < 5 | 479 | 12400 | > 2000 |
| Cn1cc(-n2ccc3c(-c4nc(N[C@H]5CCC6(CC6)NC5)ncc4C(F)(F)F)c[nH]c3c2=O)cn1 [CDK7_1199, 3-(2-{[(6S)-4-azaspiro[2.5]octan-6-yl]amino}-5-(trifluoromethyl)py-rimidin-4-yl)-6-(1-methyl-1H-pyrazol-4-yl)-1H,6H,7H-pyrrolo[2,3-c]pyridin-7-one] | < 5 | > 200 | < 10 | > 200 | < 10 | – | < 5 | 843 | 3390 | – |
| FC(F)(F)c1cnc(N[C@H]2CCCNC2)nc1-c1c[nH]c(-c2ccccc2)c1 [CDK7_533, 4-(5-phenyl-1H-pyrrol-3-yl)-N-[(3S)-piperidin-3-yl]-5-(trifluoromethyl) pyrimidin-2-amine] | 50 to 200 | > 200 | – | > 200 | 100 to 1000 | < 1 | – | – | – | 500 to 2000 |

Continued, in another order:

| IC50 (CDK7/Cyclin H/MNAT1; [5]) [nM] | IC50 (CDK9/Cyclin K; [6]) [nM] | IC50 [2] [nM] | IC50 (CDK2/Cyclin A; [7]) [nM] | IC50 [3] [nM] | Papp at 20 h, 10 μmol [4] [×10⁻⁶ cm/s] | IC50 (CDK7/Cyclin H/MNAT1; [8]) [nM] | IC50 (CDK9/Cyclin K; [9]) [nM] | IC50 (CDK2/Cyclin A; [10]) [nM] | Compound | CC50 at 72 h [1] [nM] |
| --- | --- | --- | --- | --- | --- | --- | --- | --- | --- | --- |
| < 5 | 5 to 50 | < 10 | > 200 | < 10 | < 1 | – | – | – | CN1CC=Cc2c(-c3nc(N[C@H]4CCCNC4)ncc3C(F)(F)F)c[nH]c2C1=O [CDK7_929] | 100 to 500 |
| < 5 | 5 to 50 | 10 to 100 | > 200 | 10 to 100 | – | – | – | – | CCOC(=O)c1cc(-c2nc(N[C@H]3CCCNC3)ncc2C(F)(F)F)c[nH]1 [CDK7_1020, ethyl 4-(2-{[(3S)-piperidin-3-yl]amino}-5-(trifluoromethyl)py-rimidin-4-yl)-1H-pyrrole-2-carboxylate] | > 2000 |
| < 5 | 5 to 50 | < 10 | > 200 | < 10 | < 1 | – | – | – | Cn1ccc2c(-c3nc(N[C@H]4CCCNC4)ncc3C(F)(F)F)c[nH]c2c1=O [CDK7_845, 6-methyl-3-(2-{[(3S)-piperidin-3-yl]amino}-5-(trifluoromethyl)pyrimidin-4-yl)-1H,6H,7H-pyrrolo[2,3-c]pyridin-7-one] | 100 to 500 |
| 5 to 50 | 5 to 50 | 10 to 100 | – | 10 to 100 | 1 to 5 | – | – | – | FC(F)(F)c1cnc(N[C@H]2CCCNC2)nc1-c1c[nH]c(-c2ccccn2)c1 [CDK7_1061, N-[(3S)-piperidin-3-yl]-4-[5-(pyridin-2-yl)-1H-pyrrol-3-yl]-5-(trifluoromethyl)py-rimidin-2-amine] | 500 to 2000 |
| < 5 | 5 to 50 | 10 to 100 | > 200 | 10 to 100 | – | – | – | – | FC(F)(F)c1cnc(N[C@H]2CCCNC2)nc1-c1c[nH]c(-c2ncccn2)c1 [CDK7_1062, N-[(3S)-piperidin-3-yl]-4-[5-(pyrimidin-2-yl)-1H-pyrrol-3-yl]-5-(trifluoromethyl)py-rimidin-2-amine] | 100 to 500 |
| < 5 | 5 to 50 | – | > 200 | 10 to 100 | 1 to 5 | – | – | – | CN(C)C(=O)c1cc(-c2nc(N[C@H]3CCCNC3)ncc2C(F)(F)F)c[nH]1 [CDK7_536, N,N-dimethyl-4-(2-{[(3S)-piperidin-3-yl]amino}-5-(trifluoromethyl)pyrimidin-4-yl)-1H-pyrrole-2-carboxamide] | 500 to 2000 |
